Literature values as cited in US6645392B2, “Method of removing wrinkles from fabric” (The Procter & Gamble Company, priority 2000, dated 2003).

Conditions: not given

| SMILES | solubility in water |
| --- | --- |
| ClC=CC[N+]12CN3CN(CN(C3)C1)C2.[Cl-] [Dowicil 200, 1-(3-Chlorallyl)-3,5,7-triaza-1-azoniaadamantane chloride] | freely soluble in water |

Same assay, conditions: in water

| SMILES | water solubility |
| --- | --- |
| OCCc1ccccc1 [2-phenylethanol] | about 2% |
| O=[N+]([O-])C(Br)(CO)CO [Bronopol, 2-bromo-2-nitropropane-1,3-diol] | about 25% |
| [Na+].[O-][n+]1ccccc1[S-] [sodium pyrithione] | about 50% |
| O=[N+]([O-])C1(Br)COCOC1 [Bronidox L, 5-bromo-5-nitro-1,3-dioxane] | about 0.46% |
| OCCOc1ccccc1 [2-phenoxyethanol] | about 2.67% |

Other lines, results leading:

| water solubility | SMILES |
| --- | --- |
| more than 50% | CC1(C)C(=O)N(CO)C(=O)N1CO [DMDM hydantoin, 1,3-bis(hydroxymethyl)-5,5-dimethyl-2,4-imidazolidinedione] |
| about 70% | [H]/N=C(\N/C(=N/[H])NCCCCCCNC(=N)NC(=N)Nc1ccc(Cl)cc1)Nc1ccc(Cl)cc1 [chlorhexidine digluconate, 1,1′-hexamethylene bis(5-(p-chlorophenyl)biguanide), reference compound] |
| about 0.8% | CC(C)(O)C(Cl)(Cl)Cl [chlorobutanol, 1,1,1-Trichloro-2-methylpropan-2-ol] |
| about 4% | OCc1ccccc1 [benzyl alcohol] |
| about 1.8% | [H]/N=C(\N/C(=N/[H])NCCCCCCNC(=N)NC(=N)Nc1ccc(Cl)cc1)Nc1ccc(Cl)cc1 [chlorhexidine diacetate, 1,1′-hexamethylene bis(5-(p-chlorophenyl)biguanide), reference compound] |
